What all share (assay type): cell-based, human
One test relates to H441 p-ERK. Nature of the test: Cell p-ERK assay (HTRF), NCI-H441 cells. The following applies: NCI-H441 cells (KRAS G12V), 3 h incubation. As to the method: (§1) The cells were digested with trypsin (containing EDTA), collected in their corresponding complete media, and counted. The density of the cell suspensions was adjusted with their corresponding complete media, and 10000 AsPC-1 cells or 20000 NCI-H441 cells per well were seeded into a 96-well cell culture plate, with the volume of the medium in each well being 80 µL. The cell culture plate was incubated in an incubator at 37 °C with 5% CO2 overnight. […] On the day after cell seeding, 20 µL of the 5× compound stock solution was added to each cell culture well. […] In addition to the compound-treated wells described above, cell-containing DMSO control wells were also set. A complete medium containing 0.5% DMSO was added at 20 µL/well. After the mixture was well mixed, the culture plate was incubated in the incubator at 37 °C with 5% CO2 for another 3 h. The medium was then removed from the culture wells, and 50 µL of cell lysis buffer (from Advance ERK phospho-T202/Y204 kit) was added to each well. The mixture was well mixed and incubated for 30 min. Then, 16 µL of the mixture was transferred to a white-bottomed, opaque 96-well assay plate, and separately, 16 µL of cell lysis buffer was added to additional wells (serving as blank wells) in the assay plate. After the transfer was completed, 4 µL of p-ERK HTRF antibody mixture (from Advance ERK phospho-T202/Y204 kit) was added to each well of the assay plate, followed by a 4-hour incubation. […] Using an XLfit software, the IR (%) values were plotted against the logarithm of the compound concentrations, and the dose-response curves were fitted using the four-parameter method to calculate the IC50 values.

For the next test, the system named is NCI-H441 cells. The test is described as follows: 3D cell proliferation assay (CellTiter Glo-3D), NCI-H441. The note with it: Homo sapiens, 120 h, NCI-H441 cells (KRAS G12V), 2% FBS, 5 days, read-out: H441 AP IC50. As to the method:
(§2) The cells were digested with trypsin (containing EDTA), collected in their respective low-serum complete media containing 2% FBS (for MIA Paca-2 cell culture: DMEM + 2% FBS + 0.5% Horse serum + 1% PS), and counted. After the cell density was adjusted as required, 200 MIA PaCa-2 cells, 800 AsPC-1 cells, 800 NCI-H441 cells, or 400 NCI-H1975 cells per well were seeded into a 384-well cell culture plate, with the volume of the medium in each well being 45 µL. The cell culture plate was incubated in an incubator at 37 °C with 5% CO2 overnight. […] On the day after cell seeding, 5 µL of the 10× compound stock solution was added to each cell culture well. […] In addition to the compound-treated wells described above, cell-containing DMSO control wells (with 5 µL of the complete medium containing 1% DMSO added to each well) and cell-free medium control wells (containing 50 µL of the complete medium with 2% FBS) were also set. The culture plate was incubated in an incubator at 37 °C with 5% CO2 for another 5 days, and then 30 µL of CellTiter-Glo working solution was added to each well. The mixture was well mixed, incubated for 30 min, left to stand at room temperature for 30 min, and then transferred to a white-bottomed, opaque 384-well assay plate at 40 µL/well. […] Using an XLfit software, the IR (%) values were plotted against the logarithm of the compound concentrations, and the dose-response curves were fitted using the four-parameter method to calculate the IC50 values.

In a further test the test system is AsPC-1 p-ERK. Nature of the test: Cell p-ERK assay (HTRF), AsPC-1 cells. The note with it: Homo sapiens, ASPC1, 3 h, read-out: AsPC-1 p-ERK IC50(nM). The method, then: as §1
(TR-FRET usually uses a lanthanide donor and a delayed reading to cut background.)

Another test relates to AsPC-1 cells. Nature of the test: 3D cell proliferation assay (CellTiter Glo-3D), AsPC-1. The note with it: Homo sapiens, ASPC1, 120 h, read-out: AsPC-1 AP IC50(nM). The method, then:
as §2

In the case of `CCn1c(-c2cc(C#CCN3CCCOCC3)cnc2[C@H](C)OC)c2c3cc(ccc31)-c1csc(n1)C[C@H](NC1=NOC(C)(CC)C1)C(=O)N1CCC[C@H](N1)C(=O)OCC(C)(C)C2` (atropisomer, axis not shown) [Compound Z173, (6^3S,4S,Z)-1^2-(5-(3-(1,4-oxazepan-4-yl)prop-1-yn-1-yl)-2-((S)-1-methoxyethyl)pyridin-3-yl)-1^1-ethyl-10,10-dimethyl-4-((5-ethyl-5-methyl-4,5-dihydroisoxazol-3-yl)amino)-6^1,6^2,6^3,6^4,6^5,6^6-hexahydro-1^1H-8-oxa-2(4,2)-thiazola-1(5,3)-indola-6(1,3)-pyridazinacycloundecaphane-5,7-dione], the IC50 (as a rule, the midpoint of a concentration-inhibition curve) with H441 p-ERK (Homo sapiens) was 3.03 nM. The same measure, in the same setting: the figure for `CCn1c(-c2cc(C#CCN3CCCOCC3)cnc2[C@H](C)OC)c2c3cc(ccc31)-c1csc(n1)C[C@H](NC1=NOC(C)(C(C)C)C1)C(=O)N1CCC[C@H](N1)C(=O)OCC(C)(C)C2` (atropisomer, axis not shown; (Ra)) [Compound Z280, (6^3S,4S,Z)-(Ra)-1^2-(5-(3-(1,4-oxazepan-4-yl)prop-1-yn-1-yl)-2-((S)-1-methoxyethyl)pyridin-3-yl)-1^1-ethyl-10,10-dimethyl-4-((5-isopropyl-5-methyl-4,5-dihydroisoxazol-3-yl)amino)-6^1,6^2,6^3,6^4,6^5,6^6-hexahydro-1^1H-8-oxa-2(4,2)-thiazola-1(5,3)-indola-6(1,3)-pyridazinacycloundecaphane-5,7-dione] is 1.43 nM. Turning to `CCn1c(-c2cc(C#CCN3CCCN(C(=O)CO)CC3)cnc2[C@H](C)OC)c2c3cc(ccc31)-c1csc(n1)C[C@H](NC(=O)[C@H]1[C@@H]3COC[C@@H]31)C(=O)N1CCC[C@H](N1)C(=O)OCC(C)(C)C2` (atropisomer, axis not shown; (Ra)) [Compound Z19], the IC50 with H441 p-ERK (Homo sapiens) was 0.13 nM; with NCI-H441 cells, 0.44 nM; with AsPC-1 p-ERK, 0.24 nM; in the test on AsPC-1 cells, 0.41 nM. In the case of `CCn1c(-c2cc(C#CCN3CCCOCC3)cnc2[C@H](C)OC)c2c3cc(ccc31)-c1csc(n1)C[C@H](NC1=NOC(C)(C3CC3)C1)C(=O)N1CCC[C@H](N1)C(=O)OCC(C)(C)C2` (atropisomer, axis not shown; (Ra)) [Compound Z281, (6^3S,4S,Z)-(Ra)-1^2-(5-(3-(1,4-oxazepan-4-yl)prop-1-yn-1-yl)-2-((S)-1-methoxyethyl)pyridin-3-yl)-1^1-ethyl-10,10-dimethyl-4-((5-cyclopropyl-5-methyl-4,5-dihydroisoxazol-3-yl)amino)-6^1,6^2,6^3,6^4,6^5,6^6-hexahydro-1^1H-8-oxa-2(4,2)-thiazola-1(5,3)-indola-6(1,3)-pyridazinacycloundecaphane-5,7-dione], the IC50 with H441 p-ERK (Homo sapiens) was determined as 3.04 nM; in the test with NCI-H441 cells, 3 nM; in the test on AsPC-1 cells it was 4.87 nM. For the compound `CCn1c(-c2cc(C#CCN3CCS(=O)(=O)CC3)cnc2[C@H](C)OC)c2c3cc(ccc31)-c1csc(n1)C[C@H](NC(=O)[C@@H](N)C1CCCC1)C(=O)N1CCC[C@H](N1)C(=O)OCC(C)(C)C2` (atropisomer, axis not shown; (Ra)) [Compound Z14, (2S)-2-amino-2-cyclopentyl-N-((6^3S,4S,Z)-(Ra)-1^2-(5-(3-(1,1-dioxidothiomorpholino)prop-1-yn-1-yl)-2-((S)-1-methoxyethyl)pyridin-3-yl)-1^1-ethyl-10,10-dimethyl-5,7-dioxo-6^1,6^2,6^3,6^4,6^5,6^6-hexahydro-1^1H-8-oxa-2(4,2)-thiazola-1(5,3)-indola-6(1,3)-pyridazinacycloundecaphane-4-yl)acetamide], the values for the IC50 with H441 p-ERK (Homo sapiens) and in the test with AsPC-1 p-ERK were 0.41 nM and 0.45 nM, respectively.

In the case of `CCn1c(-c2cc(C#CCN3CCS(=O)(=O)CC3)cnc2[C@H](C)OC)c2c3cc(ccc31)-c1csc(n1)C[C@H](NC(=O)[C@@H](NC)C(C)C)C(=O)N1CCC[C@H](N1)C(=O)OCC(C)(C)C2` (atropisomer, axis not shown) [Compound Z4, (2S)-N-((6^3S,4S,Z)-1^2-(5-(3-(1,1-dioxidothiomorpholin-4-yl)prop-1-yn-1-yl)-2-((S)-1-methoxyethyl)pyridin-3-yl)-1^1-ethyl-10,10-dimethyl-5,7-dioxo-6^1,6^2,6^3,6^4,6^5, 6^6-hexahydro-1^1H-8-oxa-2(4,2)-thiazola-1(5,3)-indola-6(1,3)-pyridazinacycloundecaphane-4-yl)-3-methyl-2-(methylamino)butanamide], the IC50 in the test on H441 p-ERK (Homo sapiens) came to 0.53 nM; with AsPC-1 p-ERK, 0.52 nM. In the case of `COCCn1c(-c2cc(C#CCN3CCN(C(=O)CO)CC3)cnc2[C@H](C)OC)c2c3cc(ccc31)-c1csc(n1)C[C@H](NC(=O)[C@H]1[C@@H]3COC[C@@H]31)C(=O)N1CCC[C@H](N1)C(=O)OCC(C)(C)C2` (atropisomer, axis not shown) [Compound Z31, (1R,5S,6r)-N-((6^3S,4S,Z)-1^2-(5-(3-(4-(2-hydroxyacetyl)piperazin-1-yl)prop-1-yn-1-yl)-2-((S)-1-methoxyethyl)pyridin-3-yl)-1^1-(methoxyethyl)-10,10-dimethyl-5,7-dioxo-6^1,6^2,6^3,6^4,6^5,6^6-hexahydro-1^1H-8-oxa-2(4,2)-thiazola-1(5,3)-indola-6(1,3)-pyridazinacycloundecaphane-4-yl)-3-oxabicyclo[3.1.0]hexane-6-carboxamide], in the test on H441 p-ERK (Homo sapiens), half-maximal inhibition (IC50) was put at 2.39 nM. With `CCn1c(-c2cc(C#CCN3CCCOCC3)cnc2[C@H](C)OC)c2c3cc(ccc31)-c1csc(n1)C[C@H](NC1=NOC(C)(C)C1)C(=O)N1CCC[C@H](N1)C(=O)OCC(C)(C)C2` (atropisomer, axis not shown; (Ra)) [Compound Z172-1, (6^3S,4S,Z)-(Ra)-1^2-(5-(3-(1,4-oxazepan-4-yl)prop-1-yn-1-yl)-2-((5)-1-methoxyethyl)pyridin-3-yl)-1^1-ethyl-10,10-dimethyl-4-((5,5-dimethyl-4,5-dihydroisoxazol-3-yl)amino)-6^1,6^2,6^3,6^4,6^5,6^6-hexahydro-1^1H-8-oxa-2(4,2)-thiazola-1(5,3)-indola-6(1,3)-pyridazinacycloundecaphane-5,7-dione], the IC50 in the test on H441 p-ERK (Homo sapiens) turned out to be 2.17 nM; in the test with AsPC-1 p-ERK, 5.8 nM.

As to `CCn1c(-c2cc(C#CCN3CCCOCC3)cnc2[C@H](C)OC)c2c3cc(ccc31)-c1csc(n1)C[C@H](NC1=NOC3(CCOCC3)C1)C(=O)N1CCC[C@H](N1)C(=O)OCC(C)(C)C2` (atropisomer, axis not shown) [Compound Z175, (6^3S,4S,Z)-1^2-(5-(3-(1,4-oxazepan-4-yl)prop-1-yn-1-yl)-2-((S)-1-methoxyethyl)pyridin-3-yl)-4-((1,8-dioxa-2-azaspiro[4.5]dec-2-en-3-yl)amino)-1^1-ethyl-10,10-dimethyl-6^1,6^2,6^3,6^4,6^5,6^6-hexahydro-1^1H-8-oxa-2(4,2)-thiazola-1(5,3)-indola-6(1,3)-pyridazinacycloundecaphane-5,7-dione], the IC50 with H441 p-ERK (Homo sapiens) was 2.61 nM; in the test with AsPC-1 p-ERK, 6.03 nM. The compound `CCn1c(-c2cc(C#CCN3CCS(=O)(=O)CC3)cnc2[C@H](C)OC)c2c3cc(ccc31)-c1cc(N)cc(c1)C[C@H](NC(=O)C(C(C)C)N(C)C(=O)[C@@H]1CN(C(=O)OC)C[C@@H]1C)C(=O)N1CCC[C@H](N1)C(=O)OCC(C)(C)C2` (atropisomer, axis not shown; (Ra)) [Compound Z62] had an IC50 with H441 p-ERK of 3.19 nM.

For the origin of these results see patent publication EP4775582A1, “MACROCYCLIC COMPOUND AND ANTIBODY-DRUG CONJUGATE THEREOF” (Genfleet Therapeutics (Shanghai) Inc., priority 2023, dated 2025).
